Data from paper PMC8351955, “Targeting Mycobacterium tuberculosis response to environmental cues for the development of effective antitubercular drugs” (PLoS Biology, 2021).
≈ marks a conversion by molar mass, not a printed value. Where “and” joins values, the source holds several entries; their conditions need not be identical. Equal values may be shown once. Read-outs that look alike come from different tables or passages of the source.

Key:
[1] = Kinetic aqueous solubility; assay type: physicochemical; conditions: pH 7.4 phosphate buffered saline; read-out: kinetic aqueous solubility (S)
Method: (§1) Assays examining mouse and human liver microsomal stability, kinetic aqueous solubility, mouse and human plasma protein binding and stability, and human cytochrome P450 inhibition characteristics of the compounds were run by BioDuro (San Diego, CA), using standard protocols as previously described [37]. hERG inhibition assays were also performed by BioDuro.

[2] = Mouse liver microsomal stability; assay type: in vitro ADME; conditions: mouse liver microsomes; read-out: half-life (t1/2) in mouse liver microsomes
Method: as §1

[3] = Pharmacokinetic assay, single oral dose in CD-1 mice; assay type: in vivo; conditions: female; for AUC(0-t): mouse, plasma, CD-1 mice, read-out: plasma AUC0–5h
Method: Blood samples were collected in K2EDTA-coated tubes predose, 0.5, 1, 3, and 5 hours post-dose, placed on ice, and centrifuged to recover plasma. The recovered plasma was kept at −80°C as needed prior to analysis, which was performed as previously described. In brief, a Sciex Applied Biosystems Qtrap 4000 triple-quadrupole mass spectrometer coupled to an Agilent 1260 HPLC system was used for HPLC coupled to tandem mass spectrometry (LC–MS/MS) quantitative analysis of the samples, with chromatography attained using an Agilent Zorbax SB-C8 column (2.1 × 30 mm; particle size, 3.5 μm) and a reverse-phase gradient elution. The aqueous mobile phase consisted of Milli-Q deionized water with 0.1% formic acid (A), while the organic mobile phase was 0.1% formic acid in acetonitrile (B). The gradient setup was as follows: 5% to 90% B over 2 minutes, 1 minute at 90% B, then an immediate drop to 5% B and an additional 1 minute at 5% B. Quantification of molecules was carried out via multiple reaction monitoring of parent/daughter transitions in electrospray positive ionization mode, and sample analyses accepted if quality control and standard samples had concentrations within 20% of the nominal concentration. Preparation of compounds for generation of standard curves and quality control spiking solutions were performed as previously described. Data were processed using Analyst software (Version 1.6.2; Applied Biosystems Sciex, Framingham, MA).

[4] = Vero cell toxicity assay (MTS); assay type: cell-based; conditions: African green monkey, Vero cells
Method: Vero cells (African green monkey kidney epithelial cells; ATCC CCL-81) were maintained in DMEM + 10% FBS. For the cell toxicity assay, Vero cells were plated at 1 × 10^5 cells/well in a 96-well plate and incubated for 2 to 3 hours to allow cells to settle. The test compound was dissolved in DMSO at a final concentration of 12 mg/ml. The test compound solution was then added to plated cells, resulting in final test concentrations of 50 to 0.78 μg/ml, with each concentration tested at least in duplicate. To evaluate […] cell viability, 20 μl of a 1:20 MTS:PMS reagent (Promega CellTiter 96 AQueous nonradioactive cell proliferation assay kit) was added to each well after 72 hours of incubation at 37°C, and the plate then incubated for an additional 3 hours. Absorbance at 490 nm was read on a Molecular Devices SpectraMax M5 microplate reader. The CC50 (the minimal amount of compound that inhibited Vero cell growth by 50%) was extrapolated by plotting absorbance at 490 nm versus the concentration […].

[5] = test system: macrophage phagosomal proteolytic activity in BMDMs; assay: Phagosomal maturation assay, DQ-BSA/AF594 beads (proteolysis readout); assay type: cell-based, mouse; conditions: for DQ-BSA/AF594, Average: average of 4 replicates
Method: Carboxyfluorescein (pH readout), DQ-BSA/Alexa Fluor 594 (AF594) (proteolysis readout), and BAC/AF594 (Cl^− readout) beads were generated essentially as previously described, except that 10,10′-Bis[3-carboxylpropyl]-9,9′-biacridinium dinitrate di-NHS ester (BAC-SE) was purchased from emp Biotech LLC. BMDMs were isolated from C57BL/6J mice (The Jackson Laboratory) and maintained as described above. A quantity of 2 × 10^5 macrophages/well were seeded into 96-well clear bottom black plates and utilized in assays 1 to 2 days post-seeding. […] Assay buffer consisted of PBS (pH 7.2), supplemented with 5% FBS, 5 mM dextrose, 1 mM CaCl2, 2.7 mM KCl, and 0.5 mM MgCl2 in the case of assays with the carboxyfluorescein or DQ-BSA/AF594 beads. For assays with the BAC/AF594 beads, assay buffer consisted of PBS (pH 7.2), supplemented with 5% FBS, 5 mM dextrose, 1 mM calcium acetate, 1.35 mM K2SO4, and 0.5 mM MgSO4 [9]. Sensor beads at approximately 2 to 5 beads/macrophage in appropriate assay buffer were finally added, with data acquisition on a Biotek Synergy H1 microplate reader with bottom read signal detection started within 2 to 3 minutes of bead addition. Excitation/emission wavelengths were 450 nm/520 nm and 490 nm/520 nm for carboxyfluorescein, 490 nm/520 nm for DQ-BSA, 365 nm/505 nm for BAC, and 590 nm/617 nm for AF594. Each experiment was run with a total of 3 to 5 replicate wells/condition, with temperature maintained at 37°C throughout the assay. Wells were read every 2 minutes for 2 hours for the carboxyfluorescein bead assays, every 2 minoutes for 4 hours for the DQ-BSA/AF594 bead assays, and every 1 minute for 2 hours for the BAC/AF594 bead assays. Analyses of the results were performed as previously described.

Mtb = Mtb growth assay in cholesterol medium (OD600); conditions: for OD600: Fig. 2G
Description: Bacterial growth was tracked by measuring OD600 every 3 days for 12 days. […] Bacterial growth was tracked by measurement of OD600 every 3 days over 12 days.

CCSc1ncc(CN2CCN(c3nc4ccccc4o3)CC2)cn1 [C6, 2-(4-((2-(ethylthio)pyrimidin-5-yl)methyl)piperazin-1-yl)benzo[d]oxazole]
solubility kinetic [1]: 76.4 µM (≈ 27.2 µg/mL)
half-life [2]: 48.5 min
Kp at 5 h ([3]; CD-1, mouse, 5-hour partitioning between plasma and lung, 25 mg/kg po, read-out: Clung/Cplasma): 0.86
AUC(0-t) ([3]; single 5 mg/kg po dose): 5480 ng·h/mL
AUC(0-t) ([3]; single 25 mg/kg po dose): 25700 ng·h/mL
CC50 at 72 h [4]: > 50 µg/mL
Effect on macrophage phagosomal proteolytic activity ([5]; 10 μM, uninfected BMDMs): did not affect
DQ-BSA/AF594, single replicates (Rep 1-4) ([5]; Time 0 minutes): 0.14 and 0.1347 and 0.1424 and 0.1346
DQ-BSA/AF594, single replicates (Rep 1-4) ([5]; Time 2 minutes): 0.135 and 0.1275 and 0.1349 and 0.128
DQ-BSA/AF594, single replicates (Rep 1-4) ([5]; Time 4 minutes): 0.1412 and 0.1359 and 0.1424 and 0.1318
DQ-BSA/AF594, Average ([5]; time 0 minutes): 0.1379
DQ-BSA/AF594, Average ([5]; time 2 minutes): 0.1314
DQ-BSA/AF594, Average ([5]; time 4 minutes): 0.1378
DQ-BSA/AF594, single replicates (Rep 1-4) ([5]; time 6 minutes): 0.1434 and 0.1398 and 0.1395 and 0.1344
DQ-BSA/AF594, Average ([5]; time 6 minutes): 0.1393
DQ-BSA/AF594, single replicates (Rep 1-4) ([5]; time 8 minutes): 0.1391 and 0.1428 and 0.1447 and 0.1317
DQ-BSA/AF594, Average ([5]; time 8 minutes): 0.1396
DQ-BSA/AF594, single replicates (Rep 1-4) ([5]; time 10 minutes): 0.146 and 0.145 and 0.1422 and 0.1332
DQ-BSA/AF594, Average ([5]; time 10 minutes): 0.1416
DQ-BSA/AF594, single replicates (Rep 1-4) ([5]; time 12 minutes): 0.1443 and 0.1415 and 0.1428 and 0.1313
DQ-BSA/AF594, Average ([5]; time 12 minutes): 0.14
DQ-BSA/AF594, single replicates (Rep 1-4) ([5]; time 14 minutes): 0.1461 and 0.1457 and 0.1422 and 0.1412
DQ-BSA/AF594, Average ([5]; time 14 minutes): 0.1438
DQ-BSA/AF594, single replicates (Rep 1-4) ([5]; time 16 minutes): 0.1457 and 0.1504 and 0.1476 and 0.1404
DQ-BSA/AF594, Average ([5]; time 16 minutes): 0.146
DQ-BSA/AF594, single replicates (Rep 1-4) ([5]; time 18 minutes): 0.152 and 0.1539 and 0.1536 and 0.1434
DQ-BSA/AF594, Average ([5]; time 18 minutes): 0.1507
DQ-BSA/AF594, single replicates (Rep 1-4) ([5]; time 20 minutes): 0.1544 and 0.1557 and 0.1584 and 0.1468
DQ-BSA/AF594, Average ([5]; time 20 minutes): 0.1538
DQ-BSA/AF594, single replicates (Rep 1-4) ([5]; time 22 minutes): 0.1647 and 0.1693 and 0.1637 and 0.1551
DQ-BSA/AF594, Average ([5]; time 22 minutes): 0.1632
DQ-BSA/AF594, single replicates (Rep 1-4) ([5]; time 24 minutes): 0.178 and 0.18 and 0.1857 and 0.1719
DQ-BSA/AF594, Average ([5]; time 24 minutes): 0.1789
DQ-BSA/AF594, single replicates (Rep 1-4) ([5]; time 26 minutes): 0.2064 and 0.2113 and 0.205 and 0.1944
DQ-BSA/AF594, Average ([5]; time 26 minutes): 0.2043
DQ-BSA/AF594, single replicates (Rep 1-4) ([5]; time 28 minutes): 0.2506 and 0.2446 and 0.2477 and 0.2339
DQ-BSA/AF594, Average ([5]; time 28 minutes): 0.2442
DQ-BSA/AF594, single replicates (Rep 1-4) ([5]; time 30 minutes): 0.3139 and 0.29 and 0.311 and 0.2857
DQ-BSA/AF594, Average ([5]; time 30 minutes): 0.3002
Inhibition of Mtb growth in cholesterol media (Mtb; 10 μM, OD600 over 12 days): inhibited Mtb growth
OD600 (Mtb; day 3, average): 0.06
OD600 (Mtb; day 3, individual replicates): 0.06
OD600 (Mtb; day 6, average): 0.09333
OD600 (Mtb; day 6, individual replicates): 0.1 (2×) and 0.08
OD600 (Mtb; day 9, average): 0.12
OD600 (Mtb; day 9, individual replicates): 0.12 and 0.1 and 0.14
OD600 (Mtb; day 12, average): 0.1533
OD600 (Mtb; day 12, individual replicates): 0.14 (2×) and 0.18
